Data on two molecules can be found in patent publication US5266570A, “Piperidine derivatives, compositions and use” (Imperial Chemical Industries PLC, priority 1991, dated 1993).

Experiment [1] has as its target T1, dopamine (DA) D-2 receptor (Rattus norvegicus, UniProt P61169).
T1 construct: Specifically, rat striatal membranes were used; from tissue; host or cells: rat striatum (membranes)
In words: TEST A: [3H]-spiperone binding, dopamine (DA) D-2 receptor, rat striatal membranes. The following applies: 0.5 nM [3H] spiperone, 40 nM ketanserin, pH 7.7, 37° C., 15 min, typical values, read-out: IC50 (drug concentration which produced a 50% displacement) for the displacement of [3H] spiperone. The text has this:
(§1) The compounds of Formula I are antagonists of dopamine D-2 receptors, and as such are predicted to be useful as antipsychotic drugs. D-2 antagonism can be shown by standard tests such as antagonism of [^3 H]-spiperone binding (Test A), and/or antagonism of apomorphine-induced climbing and apomorphine-induced disruption of swimming (Test B).
The receptor binding assay used to measure affinities of various compounds for the dopamine (DA) D-2 receptor subtype was that described by Saller and Salama in J Pharmacol Exp Ther 236, page 714, 1986.
Specifically, rat striatal membranes were used. Tissue membranes were prepared and washed once in 50 volumes of the appropriate Tris HCl buffer. For the D-2 receptor binding assay, striatal membranes were suspended to a final concentration of 8 mg/ml in 50 mM Tris HCl with 40 nM ketanserin, pH 7.7. Nonspecific binding to D-2 receptors was measured in the presence of 1.0 μM (+)-butaclamol. IC50 s (drug concentration which produced a 50% displacement) for the displacement of 0.5 nM [^3 H] spiperone were determined using at least five concentrations of each drug in triplicate. One-half milliliter of membrane suspension was incubated with the compound of interest or vehicle or nonspecific drug, ligand and appropriate Tris HCl buffer. […] The amount of drug bound to the membranes was assessed using liquid scintillation counting techniques. […]

For experiment [2], the system named is apomorphine-induced climbing and apomorphine-induced disruption of swimming. In words: TEST B: antagonism of apomorphine-induced climbing and apomorphine-induced disruption of swimming. It is filed as in vivo, mouse (female Swiss-Webster mice). The note with it: Mus musculus; mice, oral, 30 min before apomorphine HCl 1.25 mg/kg sc; typical values; read-out: minimum effective dose (decrease in climbing score accompanied by increase in swimming score). The protocol: as §1
Female Swiss-Webster mice weighing approximately 20 g were deprived of food for approximately 24 h and then dosed orally with various doses of either the vehicle or test agent over a range of doses (N=20 mice per treatment group). Thirty minutes later they were dosed with apomorphine HCl at 1.25 mg/kg, sc, and placed into climbing cages. The climbing cages were 9 cm wide, 15 cm deep and 30 cm high. One wall had 27 horizontal rungs spaced 1 cm apart. Thirteen minutes after apomorphine each mouse was observed continuously for 1 min and the highest and lowest rung reached by its front paws was recorded. […] (The highest and lowest scores were 27 and 0, respectively.) Immediately after the 1-min climbing observation period each mouse was placed into a circular swimming tank for 2 min and the number of swims was counted. […] A "swim" was scored each time a mouse swam from one mark to the other. The mice were observed through overhead mirrors and the number of 180 degree swims was recorded for each mouse. […]

T1 sequence (P61169 whole entry): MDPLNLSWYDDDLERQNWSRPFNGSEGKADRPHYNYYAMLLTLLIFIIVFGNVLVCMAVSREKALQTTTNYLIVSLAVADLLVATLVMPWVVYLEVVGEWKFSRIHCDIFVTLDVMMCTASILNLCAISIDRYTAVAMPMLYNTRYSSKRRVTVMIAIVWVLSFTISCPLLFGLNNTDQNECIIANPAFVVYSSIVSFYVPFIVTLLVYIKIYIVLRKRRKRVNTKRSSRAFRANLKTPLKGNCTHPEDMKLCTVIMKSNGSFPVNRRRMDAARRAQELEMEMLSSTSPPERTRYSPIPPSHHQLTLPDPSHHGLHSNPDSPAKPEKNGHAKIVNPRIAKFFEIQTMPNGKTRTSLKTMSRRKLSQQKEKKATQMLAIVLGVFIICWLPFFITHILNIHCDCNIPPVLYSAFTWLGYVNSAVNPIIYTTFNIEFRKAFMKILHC

With `CCOCC(=O)NC1CCN(C[C@@]23C[C@@H](c4ccccc42)c2ccc(Cl)cc23)CC1` [Example 1, N-(1-[(9S,10S)-(+)-2-Chloro-9,10-dihydro-9,10-methanoanthracen-9-ylmethyl]-4-piperidyl)-2-ethoxyacetamide], in experiment [1], the IC50 worked out at 9 nM. Moreover, the minimal effective dose in experiment [2] turned out to be 2.5 mg/kg.

As to `CCC(=O)NC1CCN(CC23CC(c4ccccc42)c2ccc(Cl)cc23)CC1` (stereo not shown) [Example 24, N-(1-[2-Chloro-9,10-dihydro-9,10-methanoanthracen-9-ylmethyl]-4-piperidyl)propionamide], in experiment [1], the IC50 turned out to be 146 nM. Also, the minimal effective dose in experiment [2] was 40 mg/kg.
